Laboratory results taken from patent US5693756A, “Amiloride-sensitive sodium channel and method of identifying substances which stimulate or block salty taste perception” (The Johns Hopkins University, priority 1995, dated 1997).
pKd: −log10 of the molar value.

Tests used:
[1] = biological target: T1, αENACa (Rattus norvegicus, UniProt P37089); assay: [3H]phenamil binding to membranes from HEK-293 cells transfected with αENACa
T1 construct: expressed in transfected cells
T1 sequence (P37089 with tags, fused parts or gaps limits assumed): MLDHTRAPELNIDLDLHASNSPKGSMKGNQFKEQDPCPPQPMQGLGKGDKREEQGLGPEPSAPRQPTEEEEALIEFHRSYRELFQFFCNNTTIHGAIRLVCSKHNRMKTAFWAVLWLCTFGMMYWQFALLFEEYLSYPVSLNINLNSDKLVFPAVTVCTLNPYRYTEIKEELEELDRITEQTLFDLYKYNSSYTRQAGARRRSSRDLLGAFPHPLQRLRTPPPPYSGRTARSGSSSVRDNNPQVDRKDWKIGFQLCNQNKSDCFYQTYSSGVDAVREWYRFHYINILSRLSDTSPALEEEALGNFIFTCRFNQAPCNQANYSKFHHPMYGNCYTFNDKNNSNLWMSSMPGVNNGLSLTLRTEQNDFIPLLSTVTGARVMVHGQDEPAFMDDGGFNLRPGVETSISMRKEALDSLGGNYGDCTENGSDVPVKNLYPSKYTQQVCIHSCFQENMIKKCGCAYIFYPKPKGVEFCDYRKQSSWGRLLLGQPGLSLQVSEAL
Description: (§1) Amiloride sensitive sodium channels have been extensively characterized in intact tissues by the binding of radioactive ligands. […] To limit variations in expression of individual clones, a pool of stably expressed cells (about 30 clones) that were mixed and propagated 3-4 times were used for the binding assay.
(§2) The full length cDNA of αENAC obtained by screening a rat taste cDNA library as described above (also described by Li et al., 1994, Proc. Natl. Acad. Sci. USA, 91:1814-1818, the disclosure of which is incorporated herein by reference) was cut with Not I and Xho I and inserted into an expression vector pcDNA-III (Invitrogen). The PCR product of the alternatively spliced form αENACa was cut with Bcl I to replace the corresponding region of native αENAC in pcDNA III. Thus the native form (αENAC) and an alternatively spliced form (αENACa) of the alpha subunit of ENAC in the expression vector was constructed for stable expression in HEK-293 cells. DNA (10 μg) was then transfected into HEK-293 cells by the calcium phosphate technique. Stable expression clones of cells were selected by exposure for 4-6 weeks to a medium containing 500 μg/ml G418.
(§3) Transfected HEK-293 cells were harvested in cold (4° C.) binding buffer containing 1 mM EDTA, 15 mM Tris-HCl (pH 7.7), 1 μM pepstain A, 0.1 μM aprotinin, 0.1 mM phenylmethylsulfonyl fluoride and 10 μM leupeptin. Cells were then homogenized, centrifuged and the pellet resuspended in the binding buffer at 1-2 mg/ml concentration. The reaction mixture (0.2 ml) containing [^3 H]phenamil ([…]) and 100 μg protein was incubated at 4° C. for 90 minutes and the reaction terminated by rapid filtration through Whatman GF/B glass fiber filters pretreated with 0.3% polyethyleneimine. Amiloride (Sigma) suspended in 50% dimethylformamide was used as a competitor in the binding assay. Proteins was assayed by a kit (Pierce) with bovine serum albumin as a standard.
(§4) [^3 H]phenamil binding in HEK-293 cells transfected with native αENAC or alternatively spliced αENACa are compared in FIGS. 9A and 9B. […]

[2] = biological target: T2, αENAC (Rattus norvegicus, UniProt P37089); assay: [3H]phenamil binding to membranes from HEK-293 cells transfected with native αENAC
T2 construct: alpha subunit transfected alone
T2 sequence (P37089 1-698): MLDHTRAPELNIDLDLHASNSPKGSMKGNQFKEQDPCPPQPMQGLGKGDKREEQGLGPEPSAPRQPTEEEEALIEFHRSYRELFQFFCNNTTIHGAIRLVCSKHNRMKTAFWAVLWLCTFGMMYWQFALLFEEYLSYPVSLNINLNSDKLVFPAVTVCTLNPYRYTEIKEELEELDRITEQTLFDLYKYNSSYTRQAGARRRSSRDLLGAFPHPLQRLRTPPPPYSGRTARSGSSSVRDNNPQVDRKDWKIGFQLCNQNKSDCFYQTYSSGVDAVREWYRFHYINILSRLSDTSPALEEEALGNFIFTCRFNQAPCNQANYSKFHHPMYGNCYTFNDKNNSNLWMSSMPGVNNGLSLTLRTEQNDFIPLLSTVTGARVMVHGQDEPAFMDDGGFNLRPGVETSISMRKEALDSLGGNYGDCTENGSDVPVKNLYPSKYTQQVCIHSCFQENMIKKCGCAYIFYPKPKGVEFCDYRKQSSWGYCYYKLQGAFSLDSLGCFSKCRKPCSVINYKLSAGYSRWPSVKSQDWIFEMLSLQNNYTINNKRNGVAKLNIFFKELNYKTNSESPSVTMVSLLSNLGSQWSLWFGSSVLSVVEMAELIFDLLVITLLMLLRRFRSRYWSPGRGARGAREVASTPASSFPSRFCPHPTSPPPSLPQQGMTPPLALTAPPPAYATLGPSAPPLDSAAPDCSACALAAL
Description: as §1, §2, §3, §4

[3] = biological target: T1, αENACa; assay: Inhibition by amiloride of [3H]phenamil binding to membranes from HEK-293 cells transfected with αENACa; conditions: 50 nM [3H]phenamil
Procedure: as §3
(§5) Membrane protein (100 μg) was incubated with 50 nM [^3 H]phenamil in the absence or presence of increasing concentrations of amiloride. Three independent experiments were performed in duplicate. Results are presented of a typical experiment with values varying less than 20%.

[4] = biological target: T2, αENAC; assay: Inhibition by amiloride of [3H]phenamil binding to membranes from HEK-293 cells transfected with native αENAC; conditions: 50 nM [3H]phenamil, 100 μg membrane protein, increasing concentrations of amiloride
Procedure: as §3, §5

Structure (SMILES)	specific [3H]phenamil binding, versus cells not transfected with the channel ([1]; HEK-293 cells transfected with αENACa, 50 nM [3H]phenamil, 1 mM amiloride)	Bmax ([1]; saturation analysis, membranes of HEK-293 cells transfected with αENACa) [pmol/mg protein]	pKd ([1]; saturation analysis, membranes of HEK-293 cells transfected with αENACa, 4° C., 90 minutes, read-out: apparent Kd)	levels of [3H]phenamil binding, versus cells transfected only with the expression vector ([2]; HEK-293 cells transfected with native αENAC, 50 nM [3H]phenamil, 1 mM amiloride)	Bmax ([2]; saturation analysis, membranes of HEK-293 cells transfected with αENAC) [pmol/mg protein]	pKd ([2]; saturation analysis, membranes of HEK-293 cells transfected with αENAC, 4° C., 90 minutes)	inhibition of [3H]phenamil binding ([3]; 100 μg membrane protein, increasing concentrations of amiloride, αENACa)	potency in competing for [3H]phenamil binding, αENACa transfected cells relative to native channel ([3]; αENACa versus native αENAC)	inhibition of [3H]phenamil binding [4]
NC(=Nc1ccccc1)NC(=O)c1nc(Cl)c(N)nc1N [[^3 H]phenamil, phenamil]	doubling	28	6.59	not significantly greater	18	6.57			
N=C(N)NC(=O)c1nc(Cl)c(N)nc1N [amiloride, N-amidino-3,5-diamino-6-chloropyrazine carboxamide]							inhibited	about 10 times	inhibited
